Source: patent publication US12319652B2, “Salts and solid forms of (R)-1-(5-methoxy-1H-indol-1-yl)-N,N-dimethylpropan-2-amine” (priority 2021, dated 2025)

Assays:
[1] = Suspension equilibration of compound 1 fumarate at 20 and 40° C.; conditions: 10 vol total
Method: Amorphous compound 1 fumarate was subjected to this technique at ambient temperature (20° C.) and at elevated temperature (40° C.), in a diverse range of solvents.
Amorphous compound 1 fumarate underwent suspension equilibration in 19 single solvents at two different temperature set points (20 and 40° C.). The products were isolated by centrifugation and analysed wet by XRPD. After drying, the samples were reanalyzed.
At 20° C., dissolution or gumming was initially observed in the presence of most solvents; after several days, five of the gums had mobilised to give stable suspensions (refer to entries, Table 61). The products were isolated via centrifugation and the wet pellets were analysed by XRPD, oven dried and reanalysed by XRPD, TGA, DSC and ^1H NMR.
The companion screen performed at 40° C., yielded no hits. Consequently, the screen was repeated in the presence of an appropriate polarity modifier (either heptane or tBME), to ensure activity of the solvent was maintained while generating stable suspensions from the onset (refer to Table 62).
Separate portions of compound 1 (ca 50 mg, 1.0 wt.) were charged to separate vessels. The appropriate solvents (e.g. 250 μl, 5.0 vol), as described in Table and Table were charged to the vessels and the mixtures were stirred for several days at their relevant temperatures e.g. 20 to 40° C. After this time the products were cooled, isolated by centrifugation, analyzed as wet pellet by XRPD and dried under reduced pressure at 40° C. and re-analyzed by XRPD and companion analyses for evidence of alternative crystalline forms (FIGS. 74-77).

[2] = Heat-up/cool down (HUCD) crystallization of compound 1 Fumarate in different solvents
Excerpt: Crystallisation from different solvents can be a useful method to investigate alternative polymorphic forms. This crystallisation screen of compound 1·Fumarate could also be used to identify potential conditions for future scale-up crystallisations to control the form outcome. Amorphous compound 1 fumarate (batch 1) was crystallised from several solvents (refer to Table 64). Only entries N1 AND N2 remained in solution when cooled down. The XRPD diffractograms of the rest, which delivered solids, matched monofumarate Form A when oven dried (FIG. 103).
Separate portions of compound 1 Fumarate (75 mg, 1.0 wt.) were charged to separate vessels. The appropriate solvents (750 μl) were charged to the relevant vessels and subsequent charges of the appropriate co-solvent were made to accomplish dissolution. The solutions were cooled to 18 to 23° C. and allowed to stand undisturbed, until crystallization was judged complete. After this time the products were isolated by centrifugation, washed with recycled maturation solvent, dried under reduced pressure at 40° C. and analyzed by XRPD for evidence of alternative crystalline forms (FIG. 103).

[3] = Heptane (7 parts)/2-Methyl THF (3 part)
[4] = Heptane (7 parts)/2-Propanol (3 part)
[5] = Heptane (7 parts)/Acetone (3 part)
[6] = Heptane (7 parts)/Acetonitrile (3 part)
[7] = Heptane (7 parts)/Chlorobenzene (3 part)
[8] = Heptane (7 parts)/Dichloromethane (3 part)
[9] = Heptane (7 parts)/Ethanol (3 part)
[10] = Heptane (7 parts)/Ethyl acetate (3 part)
[11] = Heptane (7 parts)/Ethyl formate (3 part)
[12] = Heptane (7 parts)/Heptane (3 part)
[13] = Heptane (7 parts)/Isopropyl acetate (3 part)
[14] = Heptane (7 parts)/Methanol (3 part)
[15] = Heptane (7 parts)/Methyl acetate (3 part)
[16] = Heptane (7 parts)/Methylethyl ketone (3 part)
[17] = Heptane (7 parts)/Nitromethane (3 part)
[18] = Heptane (7 parts)/Tetrahydrofuran (3 part)
[19] = Heptane (7 parts)/Toluene (3 part)
[20] = Heptane (7 parts)/Water (3 part)
[21] = Heptane (7 parts)/tert-Butylmethyl ether (3 part)
[22] = Heptane (5 vol) + 2-Methyl THF 380 μl
[23] = Heptane (5 vol) + 2-Propanol 120 μl
[24] = Heptane (5 vol) + Acetone 200 μl
[25] = Heptane (5 vol) + Butanol 100 μl
[26] = Heptane (5 vol) + Dichloromethane 160 μl
[27] = Heptane (5 vol) + Diethyl ether 800 μl
[28] = Heptane (5 vol) + Dioxane 240 μl
[29] = Heptane (5 vol) + Ehtyl acetate 420 μl
[30] = Heptane (5 vol) + Ethanol 180 μl
[31] = Heptane (5 vol) + Isopropyl acetate 660 μl
[32] = Heptane (5 vol) + Methylethyl ketone 100 μl
[33] = Heptane (5 vol) + Tetrahydrofuran 300 μl
[34] = no precipitant solvent (—), Toluene 800 μl

COc1ccc2c(ccn2C[C@@H](C)[NH+](C)C)c1.O=C(O)/C=C/C(=O)O [Compound 1 fumarate, (R)-1-(5-methoxy-1H-indol-1-yl)-N,N-dimethylpropan-2-amine fumarate]
Pattern #1: XRPD (post oven dried) [1, 3] | XRPD (wet) [1, 3] | XRPD (post oven dried) [1, 4] | XRPD (wet) [1, 4] | XRPD (post oven dried) [1, 5] | XRPD (wet) [1, 5] | XRPD (post oven dried) [1, 7] | XRPD (wet) [1, 7] | XRPD (post oven dried) [1, 8] | XRPD (wet) [1, 8] | XRPD (post oven dried) [1, 9] | XRPD (wet) [1, 9] | XRPD (post oven dried) [1, 11] | XRPD (wet) [1, 11] | XRPD (post oven dried) [1, 12] | XRPD (wet) [1, 12] | XRPD (post oven dried) [1, 13] | XRPD (wet) [1, 13] | XRPD (post oven dried) [1, 14] | XRPD (wet) [1, 14] | XRPD (post oven dried) [1, 15] | XRPD (wet) [1, 15] | XRPD (post oven dried) [1, 16] | XRPD (wet) [1, 16] | XRPD (post oven dried) [1, 18] | XRPD (wet) [1, 18] | XRPD (post oven dried) [1, 19] | XRPD (wet) [1, 19]
Oil (biphasic): Observations (t = 0 @ 40° C.) [1, 6] | Observations (t = 1 d) @ 40° C.) [1, 6] | Observations (t = 3 d) @ 40° C.) [1, 6] | Observations (t = 7 d @ 40° C.) [1, 6] | Observations (t = 0 @ 40° C.) [1, 14] | Observations (t = 1 d) @ 40° C.) [1, 14] | Observations (t = 7 d @ 40° C.) [1, 14] | Observations (t = 0 @ 40° C.) [1, 17] | Observations (t = 1 d) @ 40° C.) [1, 17] | Observations (t = 3 d) @ 40° C.) [1, 17] | Observations (t = 0 @ 40° C.) [1, 20] | Observations (t = 1 d) @ 40° C.) [1, 20] | Observations (t = 3 d) @ 40° C.) [1, 20] | Observations (t = 7 d @ 40° C.) [1, 20]
Gum: Observations (t = 0 @ 40° C.) [1, 3] | Observations (t = 0 @ 40° C.) [1, 5] | Observations (t = 1 d) @ 40° C.) [1, 5] | Observations (t = 7 d @ 40° C.) [1, 5] | Observations (t = 0 @ 40° C.) [1, 7] | Observations (t = 1 d) @ 40° C.) [1, 7] | Observations (t = 0 @ 40° C.) [1, 10] | Observations (t = 1 d) @ 40° C.) [1, 10] | Observations (t = 3 d) @ 40° C.) [1, 10] | Observations (t = 3 d) @ 40° C.) [1, 11] | Observations (t = 0 @ 40° C.) [1, 12] | Observations (t = 1 d) @ 40° C.) [1, 12] | Observations (t = 0 @ 40° C.) [1, 13] | Observations (t = 0 @ 40° C.) [1, 16] | Observations (t = 0 @ 40° C.) [1, 18] | Observations (t = 0 @ 40° C.) [1, 19] | Observations (t = 1 d) @ 40° C.) [1, 19] | Observations (t = 0 @ 40° C.) [1, 21] | Observations (t = 1 d) @ 40° C.) [1, 21] | Observations (t = 3 d) @ 40° C.) [1, 21]
Oil/gum: Observations (t = 7 d @ 40° C.) [1, 10] | Observations (t = 7 d @ 40° C.) [1, 21]
gum: Observations (t = 0 @ T = 20° C.) ([2]; Heptane (5 vol) + CPME 800 μl) | Observations (t = 3 d @ 20° C.) ([2]; Heptane (5 vol) + CPME 800 μl) | Observations (t = 0 @ T = 20° C.) [2, 27] | Observations (t = 3 d @ 20° C.) [2, 27] | Observations (t = 0 @ T = 20° C.) [2, 34] | Observations (t = 3 d @ 20° C.) [2, 34]
Suspension: Observations (t = 3 d) @ 40° C.) [1, 4] | Observations (t = 3 d) @ 40° C.) [1, 9]
Gum/oil: Observations (t = 3 d) @ 40° C.) [1, 5]
suspension: Observations (t = 0 @ T = 20° C.) [2, 22] | Observations (t = 3 d @ 20° C.) [2, 22] | Observations (t = 0 @ T = 20° C.) [2, 23] | Observations (t = 3 d @ 20° C.) [2, 23] | Observations (t = 0 @ T = 20° C.) [2, 24] | Observations (t = 3 d @ 20° C.) [2, 24] | Observations (t = 0 @ T = 20° C.) [2, 25] | Observations (t = 3 d @ 20° C.) [2, 25] | Observations (t = 0 @ T = 20° C.) [2, 26] | Observations (t = 3 d @ 20° C.) [2, 26] | Observations (t = 0 @ T = 20° C.) [2, 28] | Observations (t = 3 d @ 20° C.) [2, 28] | Observations (t = 0 @ T = 20° C.) [2, 29] | Observations (t = 3 d @ 20° C.) [2, 29] | Observations (t = 0 @ T = 20° C.) [2, 30] | Observations (t = 0 @ T = 20° C.) [2, 31] | Observations (t = 3 d @ 20° C.) [2, 31] | Observations (t = 0 @ T = 20° C.) ([2]; Heptane (5 vol) + MIBK 420 μl) | Observations (t = 3 d @ 20° C.) ([2]; Heptane (5 vol) + MIBK 420 μl) | Observations (t = 3 d @ 20° C.) [2, 32] | Observations (t = 0 @ T = 20° C.) [2, 33] | Observations (t = 3 d @ 20° C.) [2, 33]
Biphasic (oil): Observations (t = 3 d) @ 40° C.) [1, 14]
solution: Observations (t = 0 @ T = 20° C.) ([2]; Water (5 vol) + Ethanol 80 μl)
Pattern 1: Form XRPD (oven dried) [2, 22] | Form XRPD (oven dried) [2, 23] | Form XRPD (oven dried) [2, 24] | Form XRPD (oven dried) [2, 25] | Form XRPD (oven dried) ([2]; Heptane (5 vol) + CPME 800 μl) | Form XRPD (oven dried) [2, 27] | Form XRPD (oven dried) [2, 29] | Form XRPD (oven dried) [2, 30] | Form XRPD (oven dried) [2, 31] | Form XRPD (oven dried) ([2]; Heptane (5 vol) + MIBK 420 μl) | Form XRPD (oven dried) [2, 32] | Form XRPD (oven dried) [2, 33] | Form XRPD (oven dried) [2, 34]
